Laboratory results from publication PMC5218480 (PLoS ONE, 2017).

Tested on: MV-4-11 cells
Assay: Gene expression microarray analysis (Affymetrix PrimeView) and GSEA
Assay type: cell-based, human
Parameters: RFU PODN (11730768_x_at) / Fold change /veh PODN (11730768_x_at) / RFU LINC00158 (11744669_a_at) / Fold change /veh LINC00158 (11744669_a_at) / RFU DUSP10 (11751237_a_at) / Fold change /veh DUSP10 (11751237_a_at) / RFU ID3 (11757404_x_at) / Fold change /veh ID3 (11757404_x_at) / RFU PLEKHG5 (11737974_s_at) / Fold change /veh PLEKHG5 (11737974_s_at) / RFU LRRC4B (11730491_at) / Fold change /veh LRRC4B (11730491_at) / RFU GIMAP4 (11747438_a_at) / Fold change /veh GIMAP4 (11747438_a_at) / RFU KRT8 (11758183_x_at) / Fold change /veh KRT8 (11758183_x_at) / RFU CNN1 (11734310_a_at) / Fold change /veh CNN1 (11734310_a_at) / RFU VPS37D (11726825_at) / Fold change /veh VPS37D (11726825_at) / RFU C10orf10 (11716522_x_at) / Fold change /veh C10orf10 (11716522_x_at) / RFU KIR2DL2 /// KIR2DL4 /// KIR2DL5A /// KIR2DL5B /// KIR2DS1 /// KIR2DS2 /// KIR2DS3 /// KIR2DS4 /// KIR3DL3 /// KIR3DL3 /// KIR3DS1 (11738374_at) / Fold change /veh KIR2DL2 /// KIR2DL4 /// KIR2DL5A /// KIR2DL5B /// KIR2DS1 /// KIR2DS2 /// KIR2DS3 /// KIR2DS4 /// KIR3DL3 /// KIR3DL3 /// KIR3DS1 (11738374_at) / RFU C1QL1 (11718748_at) / Fold change /veh C1QL1 (11718748_at) / RFU TMPRSS4 (11747572_a_at) / Fold change /veh TMPRSS4 (11747572_a_at) / RFU HAMP (11756126_x_at) / Fold change /veh HAMP (11756126_x_at) / RFU RNFT2 (11725882_a_at) / Fold change /veh RNFT2 (11725882_a_at) / RFU NR4A2 (11747474_a_at) / Fold change /veh NR4A2 (11747474_a_at) / RFU ABCC12 (11746883_a_at) / Fold change /veh ABCC12 (11746883_a_at) / RFU TMEM136 (11760407_x_at) / Fold change /veh TMEM136 (11760407_x_at) / RFU CLDN22 /// WWC2 (11732394_at) / Fold change /veh CLDN22 /// WWC2 (11732394_at) / RFU HLA-DPB1 (11760878_x_at) / Fold change /veh HLA-DPB1 (11760878_x_at) / RFU SPINT1 (11716480_a_at) / Fold change /veh SPINT1 (11716480_a_at) / RFU GAP43 (11754022_s_at) / Fold change /veh GAP43 (11754022_s_at) / RFU A4GNT (11735810_at) / Fold change /veh A4GNT (11735810_at) / RFU PRB3 (11715151_x_at) / Fold change /veh PRB3 (11715151_x_at) / RFU TUBB4B (11761932_at) / Fold change /veh TUBB4B (11761932_at) / RFU CAPN14 (11732068_a_at) / Fold change /veh CAPN14 (11732068_a_at) / RFU TMCC2 (11721928_a_at) / Fold change /veh TMCC2 (11721928_a_at) / RFU IRGQ (11745062_a_at) / Fold change /veh IRGQ (11745062_a_at) / RFU FAM174B (11720279_a_at) / Fold change /veh FAM174B (11720279_a_at) / RFU TMPRSS4 (11748680_a_at) / Fold change /veh TMPRSS4 (11748680_a_at) / RFU FAM212B (11763350_a_at) / Fold change /veh FAM212B (11763350_a_at) / RFU PLEKHG5 (11743358_a_at) / Fold change /veh PLEKHG5 (11743358_a_at) / RFU ZSCAN30 (11745921_a_at) / Fold change /veh ZSCAN30 (11745921_a_at) / RFU CMKLR1 (11741424_a_at) / Fold change /veh CMKLR1 (11741424_a_at) / RFU LOC101060620 /// MAPK8IP1 (11723275_at) / Fold change /veh LOC101060620 /// MAPK8IP1 (11723275_at) / RFU SPTSSB (11747773_x_at) / Fold change /veh SPTSSB (11747773_x_at) / RFU PRSS12 (11739890_at) / Fold change /veh PRSS12 (11739890_at) / RFU BIN1 (11741810_x_at) / Fold change /veh BIN1 (11741810_x_at) / RFU WNT11 (11732464_a_at) / Fold change /veh WNT11 (11732464_a_at) / RFU C10orf10 (11716521_a_at) / Fold change /veh C10orf10 (11716521_a_at) / RFU C5orf56 (11738089_at) / Fold change /veh C5orf56 (11738089_at) / RFU CYB561 (11721691_x_at) / Fold change /veh CYB561 (11721691_x_at) / RFU ANKRD19P (11752326_a_at) / Fold change /veh ANKRD19P (11752326_a_at) / RFU OR2T12 /// OR2T33 /// OR2T8 (11738714_s_at) / Fold change /veh OR2T12 /// OR2T33 /// OR2T8 (11738714_s_at) / RFU VCAN (11748164_a_at) / Fold change /veh VCAN (11748164_a_at) / RFU JSRP1 (11732532_at) / Fold change /veh JSRP1 (11732532_at) / RFU KRTAP10-11 (11738290_x_at) / Fold change /veh KRTAP10-11 (11738290_x_at) / RFU MYO3A (11730013_a_at) / Fold change /veh MYO3A (11730013_a_at) / RFU EBF3 (11725865_a_at) / Fold change /veh EBF3 (11725865_a_at) / RFU CAMK2N1 (11719241_x_at) / Fold change /veh CAMK2N1 (11719241_x_at) / RFU C5orf56 (11738088_a_at) / Fold change /veh C5orf56 (11738088_a_at) / RFU OLFML3 (11715873_a_at) / Fold change /veh OLFML3 (11715873_a_at) / RFU LOC100653217 /// NTM (11731650_a_at) / Fold change /veh LOC100653217 /// NTM (11731650_a_at) / RFU MAPK11 (11762145_a_at) / Fold change /veh MAPK11 (11762145_a_at) / RFU FIZ1 (11724087_x_at) / Fold change /veh FIZ1 (11724087_x_at) / RFU OASL (11726364_x_at) / Fold change /veh OASL (11726364_x_at) / RFU SOX15 (11748057_x_at) / Fold change /veh SOX15 (11748057_x_at) / RFU CD79A (11719716_a_at) / Fold change /veh CD79A (11719716_a_at) / RFU HIST1H1D (11736915_at) / Fold change /veh HIST1H1D (11736915_at) / RFU CASKIN2 (11723855_a_at) / Fold change /veh CASKIN2 (11723855_a_at) / RFU LOC730098 (11760151_x_at) / Fold change /veh LOC730098 (11760151_x_at) / RFU OR4N2 (11742367_at) / Fold change /veh OR4N2 (11742367_at) / RFU PRRT2 (11749266_a_at) / Fold change /veh PRRT2 (11749266_a_at) / RFU SNX32 (11753110_a_at) / Fold change /veh SNX32 (11753110_a_at) / RFU CDHR5 (11726645_a_at) / Fold change /veh CDHR5 (11726645_a_at) / RFU RCAN1 (11760418_a_at) / Fold change /veh RCAN1 (11760418_a_at) / RFU FAM167A (11723789_a_at) / Fold change /veh FAM167A (11723789_a_at) / RFU FAM26E (11764081_at) / Fold change /veh FAM26E (11764081_at) / RFU ISYNA1 (11749810_s_at) / Fold change /veh ISYNA1 (11749810_s_at) / RFU ACY1 (11761880_at) / Fold change /veh ACY1 (11761880_at) / RFU 11764098_at / Fold change /veh 11764098_at / RFU SAMD14 (11745864_x_at) / Fold change /veh SAMD14 (11745864_x_at) / RFU NPB (11741838_a_at) / Fold change /veh NPB (11741838_a_at) / RFU TMPRSS6 (11731388_a_at) / Fold change /veh TMPRSS6 (11731388_a_at) / RFU KRTAP10-2 (11738614_at) / Fold change /veh KRTAP10-2 (11738614_at) / RFU ARHGAP8 /// PRR5-ARHGAP8 (11727945_x_at) / Fold change /veh ARHGAP8 /// PRR5-ARHGAP8 (11727945_x_at) / RFU KRTAP5-7 /// NADSYN1 (11734609_at) / Fold change /veh KRTAP5-7 /// NADSYN1 (11734609_at) / RFU RASL12 (11751679_a_at) / Fold change /veh RASL12 (11751679_a_at) / RFU CDKN2B (11736163_a_at) / Fold change /veh CDKN2B (11736163_a_at) / RFU PRF1 (11729649_at) / Fold change /veh PRF1 (11729649_at) / RFU, ZNF638 /// ZNF638-IT1 / Fold change vs veh, ZNF638 /// ZNF638-IT1 / RFU, PANK3 / Fold change vs veh, PANK3 / RFU, SH3YL1 / Fold change vs veh, SH3YL1 / RFU, ZEB2 / Fold change vs veh, ZEB2 / RFU, NRIP1 / Fold change vs veh, NRIP1 / RFU, PTTG1IP / Fold change vs veh, PTTG1IP / RFU, CAPN2 / Fold change vs veh, CAPN2 / RFU, MED14 / Fold change vs veh, MED14 / RFU, SNORA58 / Fold change vs veh, SNORA58 / RFU, C1orf63 / Fold change vs veh, C1orf63 / RFU, LRRFIP1 / Fold change vs veh, LRRFIP1 / RFU, NDUFAF7 / Fold change vs veh, NDUFAF7 / RFU, SLC12A2 / Fold change vs veh, SLC12A2 / RFU, IBTK / Fold change vs veh, IBTK / RFU, ESF1 / Fold change vs veh, ESF1 / Fold change vs veh, TMEM50B / RFU, TAOK1 / Fold change vs veh, TAOK1 / RFU, ACBD3 / Fold change vs veh, ACBD3 / RFU, TMA16 / Fold change vs veh, TMA16 / RFU, RWDD3 / Fold change vs veh, RWDD3 / RFU, BCAT1 / Fold change vs veh, BCAT1 / RFU, EDEM3 / Fold change vs veh, EDEM3 / RFU, TMEM33 / Fold change vs veh, TMEM33 / RFU, WDR75 / Fold change vs veh, WDR75 / RFU, AHCTF1 / Fold change vs veh, AHCTF1 / RFU, TFRC / Fold change vs veh, TFRC / RFU, ZDHHC17 / Fold change vs veh, ZDHHC17 / RFU, NOM1 / Fold change vs veh, NOM1 / RFU, ARL8B / Fold change vs veh, ARL8B / RFU, ZBTB11 / Fold change vs veh, ZBTB11 / RFU, TAMM41 / Fold change vs veh, TAMM41 / RFU, KIAA1704 /// LOC100996395 / Fold change vs veh, KIAA1704 /// LOC100996395 / RFU, ING1 / Fold change vs veh, ING1 / RFU, TRMT61B / Fold change vs veh, TRMT61B / RFU, FUBP3 / Fold change vs veh, FUBP3 / RFU, TP53 / Fold change vs veh, TP53 / RFU, TNKS2 / Fold change vs veh, TNKS2 / RFU, ZFP14 / Fold change vs veh, ZFP14 / RFU, ACTR2 / Fold change vs veh, ACTR2 / RFU, PPP3R1 / Fold change vs veh, PPP3R1 / RFU, PIK3R1 / Fold change vs veh, PIK3R1 / RFU, HNRNPA1 / Fold change vs veh, HNRNPA1 / RFU, RNF170 / Fold change vs veh, RNF170 / RFU, ZNF28 / Fold change vs veh, ZNF28 / RFU, RNGTT / Fold change vs veh, RNGTT / RFU, OGT / Fold change vs veh, OGT / RFU, BRD1 / Fold change vs veh, BRD1 / RFU, MARS / Fold change vs veh, MARS / RFU, ZNF655 / Fold change vs veh, ZNF655 / RFU, FAHD1 / Fold change vs veh, FAHD1 / RFU, BDP1 / Fold change vs veh, BDP1 / RFU, LRRCC1 / Fold change vs veh, LRRCC1 / RFU, ARID1A / Fold change vs veh, ARID1A / RFU, ZNF146 / Fold change vs veh, ZNF146 / RFU, ZNF330 / Fold change vs veh, ZNF330 / RFU, GPN3 / Fold change vs veh, GPN3 / RFU, C9orf123 / Fold change vs veh, C9orf123 / RFU, N4BP2L2 / Fold change vs veh, N4BP2L2 / RFU, ARFIP1 / Fold change vs veh, ARFIP1 / RFU, FAM179B / Fold change vs veh, FAM179B / RFU, BCL10 / Fold change vs veh, BCL10 / RFU, UHRF1BP1L / Fold change vs veh, UHRF1BP1L / RFU, BET1 / Fold change vs veh, BET1 / RFU, CNOT2 / Fold change vs veh, CNOT2 / RFU, ZNF268 / Fold change vs veh, ZNF268 / Fold change vs veh, ZNF507 / RFU, DGCR2 / Fold change vs veh, DGCR2 / RFU, WDSUB1 / Fold change vs veh, WDSUB1 / Fold change vs veh, HSP90B1 /// MIR3652 / RFU, ADSS / Fold change vs veh, ADSS / RFU, GK / Fold change vs veh, GK / RFU, ZNF148 / Fold change vs veh, ZNF148 / RFU, TAF9 / Fold change vs veh, TAF9 / RFU, SLC1A5 / Fold change vs veh, SLC1A5 / RFU, SLMO2 / Fold change vs veh, SLMO2 / RFU, ABCC4 / Fold change vs veh, ABCC4 / RFU, LOC101060439 /// RAP1B / Fold change vs veh, LOC101060439 /// RAP1B / RFU, RFX7 / Fold change vs veh, RFX7 / RFU, GTPBP10 / Fold change vs veh, GTPBP10 / RFU, CNEP1R1 / Fold change vs veh, CNEP1R1 / RFU, BIVM-ERCC5 /// ERCC5 / Fold change vs veh, BIVM-ERCC5 /// ERCC5 / RFU, ILF3 / Fold change vs veh, ILF3 / RFU 11762660_at / Fold change /veh 11762660_at / RFU VCAN (11757783_s_at) / Fold change /veh VCAN (11757783_s_at) / RFU DDX43 (11728927_at) / Fold change /veh DDX43 (11728927_at) / RFU KRT8 (11758188_x_at) / Fold change /veh KRT8 (11758188_x_at) / RFU NKD1 (11759106_at) / Fold change /veh NKD1 (11759106_at) / RFU SRD5A1 (11742802_a_at) / Fold change /veh SRD5A1 (11742802_a_at) / RFU TPSAB1 /// TPSB2 (11721975_s_at) / Fold change /veh TPSAB1 /// TPSB2 (11721975_s_at) / RFU GSTM3 (11746129_a_at) / Fold change /veh GSTM3 (11746129_a_at) / RFU IL23R (11737362_x_at) / Fold change /veh IL23R (11737362_x_at) / RFU TMEM51 (11727254_a_at) / Fold change /veh TMEM51 (11727254_a_at) / RFU PIWIL2 (11732686_x_at) / Fold change /veh PIWIL2 (11732686_x_at) / RFU ORM1 (11744905_x_at) / Fold change /veh ORM1 (11744905_x_at) / RFU CCDC152 (11743942_at) / Fold change /veh CCDC152 (11743942_at) / RFU ECM1 (11717891_a_at) / Fold change /veh ECM1 (11717891_a_at) / RFU IL23R (11748794_a_at) / Fold change /veh IL23R (11748794_a_at) / RFU TNFAIP8L3 (11732012_x_at) / Fold change /veh TNFAIP8L3 (11732012_x_at) / RFU MBOAT4 (11741988_at) / Fold change /veh MBOAT4 (11741988_at) / RFU 11764193_at / Fold change /veh 11764193_at / RFU TMEM53 (11763286_at) / Fold change /veh TMEM53 (11763286_at) / RFU MAGEB2 (11727129_at) / Fold change /veh MAGEB2 (11727129_at) / RFU TMEM200A (11744735_a_at) / Fold change /veh TMEM200A (11744735_a_at) / RFU CCDC152 (11751479_a_at) / Fold change /veh CCDC152 (11751479_a_at) / RFU FAM211A (11726209_a_at) / Fold change /veh FAM211A (11726209_a_at) / RFU RGS16 (11746705_a_at) / Fold change /veh RGS16 (11746705_a_at) / RFU VCAN (11755009_s_at) / Fold change /veh VCAN (11755009_s_at) / RFU RHOB (11743442_s_at) / Fold change /veh RHOB (11743442_s_at) / RFU RGS16 (11720943_a_at) / Fold change /veh RGS16 (11720943_a_at) / RFU RGS16 (11720944_at) / Fold change /veh RGS16 (11720944_at) / RFU, VPS4B / Fold change vs veh, VPS4B / RFU, CREB1 / Fold change vs veh, CREB1 / RFU, DNAJC13 / Fold change vs veh, DNAJC13 / RFU, GNAQ / Fold change vs veh, GNAQ / RFU, CDK5R1 / Fold change vs veh, CDK5R1 / RFU, ZRANB3 / Fold change vs veh, ZRANB3 / RFU, CUL4A / Fold change vs veh, CUL4A / RFU, CCNY / Fold change vs veh, CCNY / RFU, UFL1 / Fold change vs veh, UFL1 / RFU, COG3 / Fold change vs veh, COG3 / RFU, DIAPH2 / Fold change vs veh, DIAPH2 / RFU, SKA2 / Fold change vs veh, SKA2 / RFU, AFF3 / Fold change vs veh, AFF3 / RFU, LMF1 / Fold change vs veh, LMF1 / RFU, IPO11 / Fold change vs veh, IPO11 / RFU, DFFB / Fold change vs veh, DFFB / RFU, FOXP1 / Fold change vs veh, FOXP1 / RFU, CARD8 / Fold change vs veh, CARD8 / RFU, STRN3 / Fold change vs veh, STRN3 / RFU, ADK / Fold change vs veh, ADK / RFU, RASSF2 / Fold change vs veh, RASSF2 / RFU, WIPF1 / Fold change vs veh, WIPF1 / RFU, LARP1B / Fold change vs veh, LARP1B / RFU, RASA1 / Fold change vs veh, RASA1 / RFU, RB1 / Fold change vs veh, RB1 / RFU, PPFIA1 / Fold change vs veh, PPFIA1 / RFU, MAT2A / Fold change vs veh, MAT2A / RFU, CCT5 / Fold change vs veh, CCT5 / RFU, WDR92 / Fold change vs veh, WDR92 / RFU, CUX1 / Fold change vs veh, CUX1 / RFU, TTC7A / Fold change vs veh, TTC7A / RFU, TMEM135 / Fold change vs veh, TMEM135 / RFU, DEPTOR / Fold change vs veh, DEPTOR / RFU, CPM / Fold change vs veh, CPM / RFU, DNAJB6 / Fold change vs veh, DNAJB6 / RFU, CACNA2D3 / Fold change vs veh, CACNA2D3 / RFU, DTX4 / Fold change vs veh, DTX4 / RFU, TFCP2 / Fold change vs veh, TFCP2 / RFU, GMCL1 /// GMCL1P1 / Fold change vs veh, GMCL1 /// GMCL1P1 / RFU, AEBP2 / Fold change vs veh, AEBP2 / RFU, SNHG1 /// SNORD22 /// SNORD25 /// SNORD26 /// SNORD27 /// SNORD28 /// SNORD29 /// SNORD31 / Fold change vs veh, SNHG1 /// SNORD22 /// SNORD25 /// SNORD26 /// SNORD27 /// SNORD28 /// SNORD29 /// SNORD31 / Fold change (Aza/veh), C12orf56 (ProbeSet 11735607_a_at) / Fold change (ACY-1035/veh), C12orf56 (ProbeSet 11735607_a_at) / Fold change (Aza/veh), FGFR1OP (ProbeSet 11751329_s_at) / Fold change (ACY-1035/veh), FGFR1OP (ProbeSet 11751329_s_at) / Fold change (Aza/veh), VPS36 (ProbeSet 11739960_a_at) / Fold change (ACY-1035/veh), VPS36 (ProbeSet 11739960_a_at) / RFU SYPL1 (11715823_x_at) / Fold change /veh SYPL1 (11715823_x_at) / RFU IGFBP7 (11715501_s_at) / Fold change /veh IGFBP7 (11715501_s_at) / RFU REEP3 (11722064_at) / Fold change /veh REEP3 (11722064_at) / RFU IGLL1 (11728026_x_at) / Fold change /veh IGLL1 (11728026_x_at): dose or concentration left out as unconfirmed
Conditions: MV-4-11 cells, 48 hours

## Nc1ncn([C@@H]2O[C@H](CO)[C@@H](O)[C@H]2O)c(=O)n1 [azacitidine]
  Fold change /veh PRRT2 (11749266_a_at): 0.89
